Measurements: publication PMC2919388, “A Screening Pipeline for Antiparasitic Agents Targeting Cryptosporidium Inosine Monophosphate Dehydrogenase” (PLoS Neglected Tropical Diseases, 2010)
Where two headings read alike, the source gives them in different places.

Experiments:
C. parvum = experiment: High-content imaging C. parvum growth assay (FITC-VVL); format: cell-based, Cryptosporidium parvum; conditions: for EC50: Cryptosporidium parvum, HCT-8, 48 h, growth in HCT-8 cells, 48 hours; for potency relative to paromomycin: anticryptosporidial activity
Procedure: The human ileocecal adenocarcinoma epithelial cell line, HCT-8, was used to support C. parvum infection in vitro. HCT-8 cells were maintained in RPMI-1640 (Hyclone) supplemented with 10% FBS, 1 mM sodium pyruvate, 50 U/m penicillin, 50 µg/ml streptomycin, and amphotericin B. Cryptosporidium parvum oocysts were a kind gift from either Dr. Mead (Emory University) or Dr. Kissinger (University of Georgia). HCT-8 cells (2×10^5) were seeded into black, optical quality, thin bottom, 96-well plates (DB Falcon) to achieve a 70% confluent monolayer on the day of infection. To facilitate oocyst excystation, a procedure described by Gut et al., was followed. Briefly, oocysts were washed twice with 1 ml of PBS (pH 7.2), incubated for 10 minutes at 37°C in 1 ml 10 mM of HCl and then incubated for a further 10 minutes in 0.2 ml of 200 µM sodium taurocholate at 15°C [40]. This oocyst suspension was diluted directly with DMEM (Hyclone) supplemented with 2% FBS, 50 U/ml penicillin, 50 µg/ml streptomycin, amphotericin B and 0.2 mM L-glutamine (infection medium) to inoculate host cell monolayers at 5×10^5 oocysts per well. Host cell monolayers were incubated for 3 hours at 37°C prior to removal of unexcysted oocysts by aspiration and PBS wash. Infection medium was then added to the monolayers and infection was allowed to progress for 48 hours.
The VVL IFA was performed in a 96-well format. Following 48 hours of culture C. parvum infected HCT-8 cells were washed with PBS and fixed with 0.2 ml/well of 3% paraformaldehyde/PBS, permeabilized with 0.25% Triton-X-100/PBS and blocked with 4% BSA/PBS. 0.1 ml of fluorescein (FITC)-conjugated VVL (Vector Labs 0.5 µg/ml) in 1% BSA/PBS was applied to wells and incubated for 45 minutes. The plates were washed twice with 200 µl/well of PBS. In the first wash DAPI was included at 0.1 µg/ml. Finally 200 µl/well of PBS was added to the plates prior to storage at 4°C protected from light.
Confocal images were acquired using a BD Biosciences Bioimager P435. The instrument was programmed to automatically change position and focus, capture montage images of 9–16, 40× fields per well, and then compress and save the image files. Object finding algorithms were developed for the recognition of FITC-VVL labelled C. parvum parasites and DAPI labelled host cell nuclei using Attovision Software (BD Biosciences). Briefly, to identify FITC-VVL labelled parasites, the object finding algorithm included, a flat field correction, a polygon shape setting, a 3×3 rolling ball filter, manual pixel intensity thresholding (100 min – 4095 max), and minimum and maximum object size cut-offs of 5 pixels and 350 pixels respectively. The algorithm optimised for finding DAPI labelled host cell nuclei also included flat field correction and polygon shape setting, but applied a 25×25 rolling ball filter which is more suitable for larger objects, an automated pixel intensity threshold, minimum and maximum object size cut-offs of 200 pixels and 4000 pixels respectively, and a watershed step with an erosion factor of 8 to aid in the separation of adjacent densely packed nuclei. Note that the intensity and area size cut off exclude detection of the much smaller parasite nuclei (the human genome is three hundred times larger than the C. parvum genome).
The object finding analysis steps described above recorded the number and area of objects per montage image. The output files along with a plate map file were then passed to an automated analysis pipeline (Pipeline Pilot Software, Accelrys) to calculate the mean number of parasites, the ratio of parasite number to host cell nuclei number, the mean area of parasites and host cell nuclei by well, and the percentage growth by treatment as compared to the no drug control. These analyses were exported in graphical format for each plate and the numerical values tabulated in html format. […]

CpIMPDH = CpIMPDH (Cryptosporidium parvum, UniProt Q8T6T2); conditions: cited from earlier work
wild-type T. gondii = experiment: Fluorescent T. gondii growth assay, wild-type strain; format: cell-based, Toxoplasma gondii
Text: (§1) Wild-type T. gondii and T. gondii-ΔHXGPRT parasites were transfected with plasmid ptubYFPYFsagCAT [37] which drives constitutive cytoplasmic expression of two copies of the yellow fluorescent protein. Similarly, plasmid pCTR2T [38] was transfected into T. gondii-CpIMPDH resulting in constitutive cytoplasmic expression of a tandem of the tomato variant of the red fluorescent protein [39]. Fluorescent parasites were selected and cloned by cell sorting using a MoFlo Legacy instrument (Beckman Coulter, Inc). Growth of fluorescent clones was monitored in 96 well plates as previously described. Briefly, fluorescence was read daily with a SpectraMax M22/M2e (Molecular Devices) plate reader (Ex 485, Em 530) for 6–7 days. For each of the three fluorescent T. gondii clones percent growth inhibition was calculated on a day within the exponential phase of growth for the purpose of determining an IC50 for each compound.
(§2) Supplementary file pntd.0000794.s002.tif: Figure S2 Obtaining an EC50 value for T. gondii growth. Fluorescent T. gondii parasites are seeded into 96-well plates and spiked with test compound. Fluorescence is measured daily with a SpectraMax M22/M2e (Molecular Devices) plate reader for 6–7 days. The fluorescence readings on a day during the exponential phase of the growth curve, for example day 4 in A, are used to calculated percent growth inhibition. These values are fitted using the 4 parameter model y = D+(A–D)/(1+(x/C)^B) where D is the minimum value, A is the maximum value, C is the EC50 and B is the Hill coefficient, using the SoftMax Pro v5 software, as illustrated in B. The absolute EC50 is recorded at the x intercept where y = 50. (0.33 MB TIF) Click here for additional data file.

T. gondii-CpIMPDH = experiment: Fluorescent T. gondii growth assay, CpIMPDH reporter strain; format: cell-based, Toxoplasma gondii; conditions: for Selectivity = EC50(T. gondii-wild-type)/EC50(T. gondii-CpIMPDH): Figure 5 Sel
Text: as §1
To facilitate screening of antiparasitic activity, we constructed a T. gondii reporter parasite that mirrors the Cryptosporidium purine metabolism. Figure 1 summarizes the main differences between the two parasites in this pathway. We started with a T. gondii knockout mutant that, like C. parvum, lacks the ability to salvage xanthine and guanine via HXGPRT (T. gondii-ΔHXGPRT [41]) and introduced the CpIMPDH gene under the control of a T. gondii promoter. Next the native T. gondii IMPDH gene was disrupted by replacing the entire coding sequence with a chloramphenicol acetyl transferase cassette using a new cosmid-based gene targeting approach. […] This manipulation created strain T. gondii-CpIMPDH-ΔHXGPRT-ΔTgIMPDH. Lastly, we introduced a fluorescent protein cassette and isolated stable transgenic parasites by cell sorting. The resulting strain is referred to as T. gondii-CpIMPDH. […] We similarly engineered fluorescent versions of wild-type T. gondii and T. gondii-ΔHXGPRT to serve as controls.
as §2

HCT-8 cells = experiment: Fluorescent HCT-8 host cell growth assay; format: cell-based, human; conditions: for activity at 25 µM: Homo sapiens, HCT-8, compound at 25 μM, relative to DMSO alone; for effect on host cell (HCT-8) growth: in words; for inhibition of HCT-8 cell growth: at 12.5 µM and 25 µM
Procedure: HCT-8 cells were transfected with plasmid pmaxGFP (Amaxa) using Lipofectamine (Invitrogen). Fluorescent lines were then selected and cloned using cell sorting. Confluent monolayers of pmaxGFP expressing cells were harvested from T75 flasks and passed through a 40 µm cell strainer. Cells were seeded at 4000 cells per well into black, optical quality, thin bottom, 96-well plates. All test compounds were diluted in DMSO as described. The fluorescence was read daily with a SpectraMax M22/M2e (Molecular Devices) plate reader (Ex 485, Em 530) for 6–7 days. Percent inhibition was calculated on a day within the exponential phase of growth.

T. gondii-ΔHXGPRT = experiment: Fluorescent T. gondii growth assay, ΔHXGPRT strain; format: cell-based; conditions: Toxoplasma gondii, read-out: T. gondii model EC50 ΔHXGPRT, T. gondii-ΔHXGPRT
Text: as §1, §2

[1] = read-out: CpIMPDH Inhibition IC50 - BSA
[2] = Toxoplasma gondii, wild-type T. gondii, no added xanthine, read-out: T. gondii model EC50 WT
[3] = wild-type T. gondii, no added xanthine, read-out: T. gondii model EC50 WT
[4] = Toxoplasma gondii, read-out: T. gondii model EC50 CpIMPDH, T. gondii-CpIMPDH, absence of xanthine

Chain of CpIMPDH (Q8T6T2 whole entry): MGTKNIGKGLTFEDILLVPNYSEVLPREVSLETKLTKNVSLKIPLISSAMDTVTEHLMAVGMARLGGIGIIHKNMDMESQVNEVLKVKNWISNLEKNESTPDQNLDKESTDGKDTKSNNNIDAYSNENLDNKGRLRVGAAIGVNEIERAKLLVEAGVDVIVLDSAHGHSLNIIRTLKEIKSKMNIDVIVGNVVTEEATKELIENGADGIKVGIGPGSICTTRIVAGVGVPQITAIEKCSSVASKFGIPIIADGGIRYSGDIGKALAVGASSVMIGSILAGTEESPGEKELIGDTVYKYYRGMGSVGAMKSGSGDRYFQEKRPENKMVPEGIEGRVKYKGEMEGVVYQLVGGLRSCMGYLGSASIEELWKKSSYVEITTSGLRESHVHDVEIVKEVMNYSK

SMILES | EC50 (C. parvum) [µM] | IC50 (CpIMPDH; [1]) [µM] | EC50 (wild-type T. gondii; [2]) [µM] | EC50 (wild-type T. gondii; [3]) [µM] | Selectivity = EC50(T. gondii-wild-type)/EC50(T. gondii-CpIMPDH) (T. gondii-CpIMPDH) | EC50 (T. gondii-CpIMPDH; read-out: T. gondii model EC50 CpIMPDH, T. gondii-CpIMPDH, absence of xanthine) [µM] | activity at 25 µM (HCT-8 cells) [%] | effect on host cell (HCT-8) growth (HCT-8 cells) | EC50 (T. gondii-ΔHXGPRT) [µM] | EC50 (T. gondii-CpIMPDH; [4]) [µM] | IC50 (CpIMPDH; in the presence of BSA, values marked c, read-out: CpIMPDH Inhibition IC50 + BSA) [µM] | IC50 (CpIMPDH; without BSA, values marked c, read-out: CpIMPDH Inhibition IC50 - BSA) [µM] | selectivity for the T. gondii-CpIMPDH parasite over wild-type T. gondii (T. gondii-CpIMPDH) [fold] | inhibition of HCT-8 cell growth (HCT-8 cells) | IC50 (CpIMPDH; read-out: CpIMPDH Inhibition IC50 + BSA) [µM] | potency relative to paromomycin (C. parvum) [×] | CpIMPDH inhibition by MPA (CpIMPDH; at concentrations active against TgIMPDH) | EC50 (wild-type T. gondii; Toxoplasma gondii, media supplemented with xanthine (0.33 mM), read-out: EC50 wild-type T. gondii with xanthine) [µM]
CC(Oc1ccc(Cl)c2ccccc12)c1cn(-c2ccc(Cl)cc2)nn1 (centres unmarked) [Compound A82] | 6 to 13 | 0.09 ± 0.03 | 5 ± 2 | ≤ 10 | 0.9 | ≤ 10 | 108 ± 2 | do not inhibit host cell growth | – | – | – | – | – | – | – | – | – | –
CC(Oc1ccnc2ccccc12)c1cn(-c2ccc(Cl)cc2)nn1 (centres unmarked) [Compound A89] | < 13 | – | 4.9 ± 0.9 | – | 14 | – | 43 ± 2 | – | 6 ± 2 | 0.4 ± 0.2 | – | – | – | – | – | – | – | –
CC(Oc1ccnc2ccccc12)c1cn(-c2ccc(Cl)c(Cl)c2)nn1 (centres unmarked) [Compound A90] | 6 to 13 | – | 5 ± 3 | ≤ 10 | 1.5 | – | 77 ± 5 | do not inhibit host cell growth | – | – | – | – | – | – | – | – | – | –
CC(Oc1ccnc2ccccc12)c1cn(-c2ccc(C#N)c(Cl)c2)nn1 (centres unmarked) [Compound A92] | 3 to 6 | – | 9 ± 2 | – | 1.6 | – | 47 ± 1 | – | 8 ± 4 | 5 ± 1 | – | – | – | – | – | – | – | –
C[C@@H](Oc1cncc2ccccc12)c1cn(-c2ccc(Cl)cc2)nn1 [Compound A98] | 3 to 6 | – | 2.8 ± 0.1 | – | > 12 | – | 65 ± 7 | – | 2.3 ± 0.6 | < 0.2 | 0.03 ± 0.001 | 0.009 ± 0.001 | – | – | – | – | – | –
CC(Oc1cc[n+]([O-])c2ccccc12)c1cn(-c2ccc(Cl)cc2)nn1 (centres unmarked) [Compound A100] | 12 to 25 | 0.03 ± 0.01 | > 25 | ≥ 20 | – | – | 44 ± 10 | – | ≥ 25 | 0.5 | – | – | ≥ 36 | inhibit HCT-8 cell growth significantly | – | – | – | –
CC(Oc1cccc2c1ccc[n+]2[O-])c1cn(-c2ccc(Cl)cc2)nn1 (centres unmarked) [Compound A102] | 12 to 25 | – | 23 ± 3 | ≥ 20 | 76 | – | 62 | – | 20 ± 5 | 0.3 ± 0.1 | – | – | ≥ 36 | inhibit HCT-8 cell growth significantly | 0.06 ± 0.02 | – | – | –
CC(Oc1cc[n+]([O-])c2ccccc12)c1cn(-c2ccc(Cl)c(Cl)c2)nn1 (centres unmarked) [Compound A103] | < 0.8 | – | 19 ± 4 | ≥ 20 | 36 | – | 33 ± 6 | – | 17 ± 4 | 0.5 ± 0.4 | – | – | ≥ 36 | inhibit HCT-8 cell growth significantly | – | > 100 | – | –
C[C@@H](Oc1ccnc2ccccc12)c1cn(-c2ccc(Cl)c(Cl)c2)nn1 [Compound A105] | 6 to 13 | – | – | – | 2.9 | – | 81 ± 13 | do not inhibit host cell growth | – | – | – | – | – | – | – | – | – | –
C[C@H](Oc1ccnc2ccccc12)c1cn(-c2ccc(Cl)c(Cl)c2)nn1 [Compound A107] | < 13 | – | 6 | – | 3.1 | – | 64 ± 16 | – | 7 | 2.4 | – | – | – | – | – | – | – | –
C[C@H](Oc1ccnc2ccccc12)c1cn(-c2ccc(C#N)c(Cl)c2)nn1 [Compound A108] | 12 to 25 | – | 5 | – | 1.3 | – | 47 ± 14 | – | – | 3.9 | – | – | – | – | – | – | – | –
C[C@@H](Oc1cc[n+]([O-])c2ccccc12)c1cn(-c2ccc(Cl)cc2)nn1 [Compound A110] | < 0.8 | – | 23 ± 2 | – | > 120 | – | 94 ± 12 | – | > 25 | < 0.2 | – | – | ≥ 36 | – | – | > 100 | – | –
COc1c(C)c2c(c(O)c1C/C=C(\C)CCC(=O)O)C(=O)OC2 [MPA, mycophenolic acid, reference compound] | – | – | 2.6 | – | – | – | – | – | 0.29 | > 65 | – | – | – | – | – | – | not inhibited | ≥ 78
CCCC(=O)[O-].[Na+] [sodium butyrate, reference compound] | – | – | – | – | – | – | – | did inhibit HCT-8 growth in a dose-dependent manner | – | – | – | – | – | – | – | – | – | –
